Data set [1] has as its system MCF-7 (breast cancer cell line). Nature of the data set: Antiproliferative assay, MCF-7. The data set is classed as cell-based, human. The following applies: read-out: Antiproliferative activity IC50 ± SEM, MCF-7. The source says: (§1) Refer to Supplementary Appendix A for more information.
(§2) DMSO (0.1%) was used as control.

The test system of data set [2] is four human cancer cell lines (HT-29, A-549, MCF-7, Panc-1). Nature of the data set: Antiproliferative assay, mean over four cancer cell lines (GI50). To be noted: for IC50: read-out: Average IC50 (GI50).
Procedure: To calculate the total nuclear DNA, a fluorescent dye (propidium iodide, PI) is used which can attach to the DNA, thus offering a quick and precise technique. PI cannot pass through the cell membrane and its signal intensity can be considered as directly proportional to quantity of cellular DNA. Cells whose cell membranes are damaged or have changed permeability are counted as dead ones. […] The medium was removed; the compounds were added to the plates at 10 µM concentrations (in 0.1% DMSO) in triplicates, followed by incubation for 48 h. DMSO (0.1%) was used as control. After incubation, medium was removed followed by the addition of PI (25 µl, 50µg/mL in water/medium) to each well of the plates. At -80 °C, the plates were allowed to freeze for 24 h, followed by thawing at 25 °C. A fluorometer (Polar-Star BMG Tech) was used to record the readings at excitation and emission wavelengths of 530 and 620 nm for each well. The percentage cytotoxicity of compounds was calculated using the following formula:
In data set [3] the test system is HT-29 (colon cancer cell line). Briefly: Antiproliferative assay, HT-29. The data set is classed as cell-based, human. The following applies: read-out: Antiproliferative activity IC50 ± SEM, HT-29.
Excerpt: as §1, §2

The subject of data set [4] is Panc-1 (pancreatic cancer cell line). Nature of the data set: Antiproliferative assay, Panc-1. The following applies: read-out: Antiproliferative activity IC50 ± SEM, Panc-1. In kind it is cell-based, human.
Excerpt: as §1, §2

The subject of data set [5] is A-549 (lung cancer cell line). Nature of the data set: Antiproliferative assay, A-549. The following applies: read-out: Antiproliferative activity IC50 ± SEM, A-549. In kind it is cell-based, human.
Excerpt: as §1, §2

Data set [6] concerns MCF-10A normal human mammary gland epithelial cell line. To be noted: 50 µM.
Procedure: (§3) The medium in which cells were propagated contained Dulbecco's modified Eagle's medium (DMEM)/ Ham's F-12 medium (1:1) supplemented with epidermal growth factor (20 ng/mL), hydrocortisone (500 ng/mL), insulin (10 μg/mL), 2 mM glutamine and 10% foetal calf serum. After every 2-3 days, the cells were passed using trypsin ethylenediamine tetra acetic acid (EDTA). The cells were seeded at a density of 10^4 cells mL^-1 in flat-bottomed culture plates containing 96 wells each. After 24 h, medium was removed from the plates and the compounds in (in 0.1% DMSO) were added (in 200 μL medium to yield a final concentration of 0.1% v/v) to the wells of plates. A single compound was designated with four wells followed by incubation of plates for 96h at 37°C. After incubation, medium was removed completely from the plates followed by addition of MTT (0.4 mg/mL in medium) to each well and subsequent incubation of plates for 3h. MTT (along with the medium) was removed and DMSO (150μL) was added to each well of the culture plates, followed by vortexing and subsequent measurement of absorbance (at 540 nm) using microplate reader.
Data set [7] in a line: Cell viability assay (MTT) on MCF-10A normal cells. To be noted: human, MCF-10A normal mammary gland epithelial cells.
Procedure: as §3
Another data set deals with EGFR (Homo sapiens, UniProt P00533). Briefly: EGFR-TK inhibitory assay.
EGFR, sequence (P00533 669-1210): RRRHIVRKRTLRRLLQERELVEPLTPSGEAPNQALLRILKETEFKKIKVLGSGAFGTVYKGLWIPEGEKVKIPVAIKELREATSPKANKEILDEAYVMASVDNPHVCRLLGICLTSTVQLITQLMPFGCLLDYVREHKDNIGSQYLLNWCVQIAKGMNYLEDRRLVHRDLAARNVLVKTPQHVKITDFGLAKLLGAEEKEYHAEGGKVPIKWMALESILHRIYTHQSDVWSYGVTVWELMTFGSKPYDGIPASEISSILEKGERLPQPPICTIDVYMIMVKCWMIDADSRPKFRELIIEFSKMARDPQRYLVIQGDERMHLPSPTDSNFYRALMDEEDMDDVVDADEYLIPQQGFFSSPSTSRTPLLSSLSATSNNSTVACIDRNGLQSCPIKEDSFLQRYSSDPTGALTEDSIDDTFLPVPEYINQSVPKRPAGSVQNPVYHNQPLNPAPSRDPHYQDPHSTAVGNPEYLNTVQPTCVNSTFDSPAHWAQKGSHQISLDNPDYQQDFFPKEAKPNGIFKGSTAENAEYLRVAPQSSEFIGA
[8] abbreviates: mean IC50 of A-549, MCF-7, Panc-1, HT-29.

Where two headings read alike, the source gives them in different places.

Procedure for EGFR: To record autophosphorylation level, EGFR kinase assay was carried out on the basis of DELFIA/Time-Resolved Fluorometry. […] Each compound (10 µL) was incubated with recombinant enzyme (10 µL, 5 ng for EGFR, 1:80 dilution in 100 mM HEPES) for 10 min at 25 °C, subsequent to the addition of 5X buffer (10 µL, containing 2 mM MnCl2, 100 µM Na3VO4, 20 mM HEPES and 1 mM DTT) and ATP-MgCl2 (20 µL, containing 0.1 mM ATP and 50 mM MgCl2) and incubation for 1h. The negative and positive controls were included in each plate by the incubation of enzyme either with or without ATP-MgCl2. The liquid was removed after incubation and the plates were washed thrice using wash buffer. Europium-tagged antiphosphotyrosine antibody (75 µL, 400 ng) was added to each well followed by incubation of 1h and then washing of the plates using buffer. […] The autophosphorylation percentage inhibition by compounds was calculated using the following equation:

For orientation: IC50 means the concentration that gives 50% inhibition. Take “2-(Benzylthio)-1-((1-(3-methoxyphenyl)-1H-1,2,3-triazol-5-yl)methyl)-1H-benzimidazole [10h]”: the half-maximal inhibitory concentration (IC50) in data set [1] (MCF-7) came out at 72 ± 7 nM; in data set [2] (setting [8]) it was 75 nM; in data set [3], 76 ± 7 nM; in data set [4] (Panc-1), 76 ± 7 nM; in data set [5] (A-549) it was 76 ± 7 nM. Also, in data set [6], the Cell viability % came out at 89%.

In the case of “2-(Benzylthio)-1-((1-(4-bromophenyl)-1H-1,2,3-triazol-5-yl)methyl)-1H-benzimidazole [10c]”, the IC50 came to 52 ± 5 nM in data set [1] (MCF-7); 54 nM in data set [2] (setting [8]); 54 ± 5 nM in data set [3]; 54 ± 5 nM in data set [4] (Panc-1); 55 ± 5 nM in data set [5] (A-549). Besides, the Cell viability % in data set [6] was determined as 92%.

As for “2-(Benzylthio)-1-((1-(4-chlorophenyl)-1H-1,2,3-triazol-5-yl)methyl)-1H-benzimidazole [10b]”, the half-maximal inhibitory concentration (IC50) is 44 ± 3 nM in data set [1] (MCF-7), 48 ± 4 nM in data set [3], 48 ± 4 nM in data set [4] (Panc-1) and 48 ± 4 nM in data set [5] (A-549). The Cell viability % in data set [6] came to 86%.

With “2-(Benzylthio)-1-((1-(p-tolyl)-1H-1,2,3-triazol-5-yl)methyl)-1H-benzimidazole [10f]”, the half-inhibitory concentration (IC50) in data set [1] (MCF-7) was found to be 63 ± 6 nM; in data set [2] (setting [8]) it was 65 nM; in data set [3] it was 65 ± 6 nM; in data set [4] (Panc-1), 65 ± 6 nM; in data set [5] (A-549), 66 ± 6 nM. The compound also displayed a Cell viability % in data set [6] of 89%.

“2-(Benzylthio)-1-((1-phenyl-1H-1,2,3-triazol-5-yl)methyl)-1H-benzimidazole [10a]”: the 50% inhibitory concentration (IC50) in data set [1] (MCF-7) was found to be 56 ± 5 nM; in data set [2] (setting [8]) it was 59 nM; in data set [3] it was 60 ± 5 nM; in data set [4] (Panc-1), 60 ± 5 nM; in data set [5] (A-549), 59 ± 5 nM. In data set [6], the Cell viability % is listed as 87%.

The viability is the share of living cells, or the viability signal relative to a control. With `c1ccc(-n2cc(CSc3nc4ccccc4[nH]3)nn2)cc1` [6a, 2-(((1-Phenyl-1H-1,2,3-triazol-4-yl)methyl)thio)-1H-benzimidazole], the half-inhibitory concentration (IC50) is 85 ± 7 nM in data set [1] (Homo sapiens, MCF7); 88 nM in data set [2] (Homo sapiens); 88 ± 8 nM in data set [3] (Homo sapiens); 89 ± 8 nM in data set [4] (Homo sapiens, PANC-1); 89 ± 8 nM in data set [5] (Homo sapiens, A549). In addition, in data set [7], the viability at 4 days, 50 µM turned out to be 84%.

Consider `Clc1ccc(-n2cc(CSc3nc4ccccc4[nH]3)nn2)cc1` [6b, 2-(((1-(4-Chlorophenyl)-1H-1,2,3-triazol-4-yl)methyl)thio)-1H-benzimidazole], for which the IC50 was 45 ± 4 nM in data set [1] (Homo sapiens, MCF7); 47 nM in data set [2] (Homo sapiens); 48 ± 4 nM in data set [3] (Homo sapiens); 48 ± 4 nM in data set [4] (Homo sapiens, PANC-1); 47 ± 4 nM in data set [5] (Homo sapiens, A549). In data set [7], this compound registered a viability at 4 days, 50 µM of 87%.

Regarding `Brc1ccc(-n2cc(CSc3nc4ccccc4[nH]3)nn2)cc1` [6c, 2-(((1-(4-Bromophenyl)-1H-1,2,3-triazol-4-yl)methyl)thio)-1H-benzimidazole], the half-inhibitory concentration (IC50) in data set [1] (Homo sapiens, MCF7) is 90 ± 8 nM; in data set [2] (Homo sapiens), 94 nM; in data set [3] (Homo sapiens) it was 94 ± 9 nM; in data set [4] (Homo sapiens, PANC-1), 96 ± 9 nM; in data set [5] (Homo sapiens, A549), 96 ± 9 nM. The compound further gave a viability at 4 days, 50 µM in data set [7] of 91%.

As to `O=[N+]([O-])c1ccc(-n2cc(CSc3nc4ccccc4[nH]3)nn2)cc1` [6d, 2-(((1-(4-Nitrophenyl)-1H-1,2,3-triazol-4-yl)methyl)thio)-1H-benzimidazole], the half-maximal inhibitory concentration (IC50) worked out at 83 ± 7 nM in data set [1] (Homo sapiens, MCF7); 85 nM in data set [2] (Homo sapiens); 86 ± 8 nM in data set [3] (Homo sapiens); 86 ± 8 nM in data set [4] (Homo sapiens, PANC-1); 85 ± 7 nM in data set [5] (Homo sapiens, A549). This compound also had a viability at 4 days, 50 µM in data set [7] of 93%.

Regarding `O=[N+]([O-])c1cccc(-n2cc(CSc3nc4ccccc4[nH]3)nn2)c1` [6e, 2-(((1-(3-Nitrophenyl)-1H-1,2,3-triazol-4-yl)methyl)thio)-1H-benzimidazole], the IC50 in data set [1] (Homo sapiens, MCF7) worked out at 36 ± 3 nM; in data set [2] (Homo sapiens), 38 nM; in data set [3] (Homo sapiens), 38 ± 3 nM; in data set [4] (Homo sapiens, PANC-1), 38 ± 3 nM; against EGFR it was 89 ± 6 nM; in data set [5] (Homo sapiens, A549), 40 ± 3 nM. In data set [7], this compound yielded a viability at 4 days, 50 µM of 86%.

In the case of `Cc1ccc(-n2cc(CSc3nc4ccccc4[nH]3)nn2)cc1` [6f, 2-(((1-(p-Tolyl)-1H-1,2,3-triazol-4-yl)methyl)thio)-1H-benzimidazole], the concentration for half-maximal inhibition (IC50) was found to be 78 ± 7 nM in data set [1] (Homo sapiens, MCF7); 80 nM in data set [2] (Homo sapiens); 82 ± 7 nM in data set [3] (Homo sapiens); 80 ± 7 nM in data set [4] (Homo sapiens, PANC-1); 81 ± 7 nM in data set [5] (Homo sapiens, A549). The same compound gave a viability at 4 days, 50 µM in data set [7] of 90%.

Take `COc1ccc(-n2cc(CSc3nc4ccccc4[nH]3)nn2)cc1` [6g, 2-(((1-(4-Methoxyphenyl)-1H-1,2,3-triazol-4-yl)methyl)thio)-1H-benzimidazole]: the IC50 stood at 69 ± 6 nM in data set [1] (Homo sapiens, MCF7); 72 nM in data set [2] (Homo sapiens); 74 ± 7 nM in data set [3] (Homo sapiens); 72 ± 7 nM in data set [4] (Homo sapiens, PANC-1); 72 ± 7 nM in data set [5] (Homo sapiens, A549). Further, the viability at 4 days, 50 µM in data set [7] was determined as 89%.

With `COc1cccc(-n2cc(CSc3nc4ccccc4[nH]3)nn2)c1` [6h, 2-(((1-(3-Methoxyphenyl)-1H-1,2,3-triazol-4-yl)methyl)thio)-1H-benzimidazole], the concentration for half-maximal inhibition (IC50) was 66 ± 6 nM in data set [1] (Homo sapiens, MCF7); 68 nM in data set [2] (Homo sapiens); 68 ± 6 nM in data set [3] (Homo sapiens); 69 ± 6 nM in data set [4] (Homo sapiens, PANC-1); 69 ± 6 nM in data set [5] (Homo sapiens, A549). Moreover, the viability at 4 days, 50 µM in data set [7] worked out at 91%.

As for `O=[N+]([O-])c1ccc(-n2cc(Cn3c(SCc4ccccc4)nc4ccccc43)nn2)cc1` [10d], the IC50 was 34 ± 3 nM in data set [1] (Homo sapiens, MCF7); 36 nM in data set [2] (Homo sapiens); 38 ± 3 nM in data set [3] (Homo sapiens); 36 ± 3 nM in data set [4] (Homo sapiens, PANC-1); 86 ± 6 nM against EGFR; 37 ± 3 nM in data set [5] (Homo sapiens, A549). Besides, the “Potency relative to 10e (GI50), fold less potent” value in data set [2] (GI50 vs 10e) stood at 1.5 fold. The viability at 4 days, 50 µM in data set [7] stood at 89%.

Regarding `COc1ccc(-n2cc(Cn3c(SCc4ccccc4)nc4ccccc43)nn2)cc1` [10g], the IC50 stood at 32 ± 3 nM in data set [1] (Homo sapiens, MCF7); 34 nM in data set [2] (Homo sapiens); 35 ± 3 nM in data set [3] (Homo sapiens); 34 ± 3 nM in data set [4] (Homo sapiens, PANC-1); 82 ± 5 nM on EGFR; 34 ± 3 nM in data set [5] (Homo sapiens, A549). In data set [7], this compound yielded a viability at 4 days, 50 µM of 90%.

On to `NS(=O)(=O)c1ccc(-n2cc(Cn3c(SCc4ccccc4)nc4ccccc43)nn2)cc1` [10i], for which the half-inhibitory concentration (IC50) turned out to be 42 ± 4 nM in data set [1] (Homo sapiens, MCF7); 43 nM in data set [2] (Homo sapiens); 45 ± 4 nM in data set [3] (Homo sapiens); 44 ± 4 nM in data set [4] (Homo sapiens, PANC-1); 44 ± 4 nM in data set [5] (Homo sapiens, A549). In data set [7], this compound came in with a viability at 4 days, 50 µM of 91%.

On to `C#Cc1cccc(Nc2ncnc3cc(OCCOC)c(OCCOC)cc23)c1` [Erlotinib, reference compound], for which the half-maximal inhibitory concentration (IC50) in data set [2] (Homo sapiens) was 33 nM.

The values above are taken from paper PMC11783063, “Design, synthesis, and apoptotic antiproliferative action of new benzimidazole/1,2,3-triazole hybrids as EGFR inhibitors” (Frontiers in Chemistry, 2025).
